“And” between values parts separate entries of the source, which are not always exact repeats. Identical values can stand only once.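 Cells were grown in 96-well plates and exposed to each compound for 48 hours at five concentrations; endpoints were interpolated linearly between bracketing concentrations, or set to the highest concentration if not reached. Abbreviation: GI50, concentration required for 50% inhibition of growth.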 The source made the active and inactive calls. No stated cut-off is given here; in the data, active = GI50 up to about 1.1 µM and inactive = higher.
Legend:
Assay in all cases: inhibition of tumour cell growth, NCI panel, 48 h
[1] = system: ACHN
[2] = system: BT-549
[3] = system: CAKI-1
[4] = system: CCRF-CEM
[5] = system: COLO 205
[6] = system: EKVX
[7] = system: HCC 2998
[8] = system: HCT-116
[9] = system: HCT-15
[10] = system: HOP-92
[11] = system: HT-29
[12] = system: Hs-578T
[13] = system: IGROV-1
[14] = system: KM12
[15] = system: LOX IMVI
[16] = system: M14
[17] = system: MDA-MB-231
[18] = system: MDA-MB-435
[19] = system: MDA-N
[20] = system: Malme-3M
[21] = system: NCI-H23
[22] = system: NCI-H522
[23] = system: OVCAR-3
[24] = system: OVCAR-4
[25] = system: OVCAR-5
[26] = system: PC-3
[27] = system: SK-MEL-28
[28] = system: SK-MEL-2
[29] = system: SNB-19
[30] = system: SNB-75
[31] = system: SW-620
[32] = system: T47D
[33] = system: TK-10
[34] = system: UACC-257
[35] = system: UO-31
[36] = system: 786-0
[37] = system: A498
[38] = system: A549
[39] = system: DU-145
[40] = system: HOP-62
[41] = system: K562
[42] = system: MOLT-4
[43] = system: NCI-H226
[44] = system: NCI-H460
[45] = system: NCI/ADR-RES
[46] = system: OVCAR-8
[47] = system: RPMI-8226
[48] = system: RXF 393
[49] = system: SF-268
[50] = system: SF-295
[51] = system: SK-MEL-5
[52] = system: SK-OV-3
[53] = system: SN12C
[54] = system: SR
[55] = system: U-251
[56] = system: UACC-62
[57] = system: MCF7
[58] = system: SF-539

Measured: GI50

Cc1nc2c(Br)cc(Br)cc2c(=O)n1-c1ccccc1NC1OCC(O)C(O)C1O (centres undefined)
inactive: [1] 17.2 µM and 32.3 µM | [2] 26.5 µM and 29.3 µM | [3] 45.2 µM and 28.4 µM | [4] 21.5 µM and 11.5 µM | [5] 18.6 µM and 17.6 µM | [6] 48.6 µM and 39 µM | [7] 33.7 µM | [8] 24.7 µM and 16 µM | [10] 19.6 µM and 35.8 µM | [11] 24.9 µM and 15.3 µM | [12] > 25.5 µM and 39.7 µM | [13] 41.4 µM and 21.2 µM | [14] 24.7 µM | [15] 14.6 µM and 21.6 µM | [16] 21.8 µM and 32.7 µM | [17] 27.2 µM and 45.7 µM | [18] 42.1 µM and 39.4 µM | [19] 33.7 µM and 41.4 µM | [20] 28.3 µM and 37.8 µM | [21] 20.7 µM and 38 µM | [22] 19.7 µM and 17.4 µM | [23] 24.3 µM and 20.9 µM | [24] 24.1 µM and 39.1 µM | [25] 44.2 µM and 42.7 µM | [26] 33.3 µM and 46 µM | [27] 69.2 µM and 74.3 µM | [28] 38.8 µM and 34.3 µM | [29] 40.8 µM and 22.9 µM | [30] 18.8 µM and 33 µM | [31] 28.6 µM | [32] 44 µM and 30.5 µM | [33] 23.4 µM and 40.9 µM | [34] 23.7 µM and 44.8 µM | [35] 42.2 µM and 30.5 µM
48.8 µM and 41.1 µM: [9]

COC(=O)C1(O)C(c2ccccc2)=NC2(C)CCCC21 (centres undefined)
inactive: [36] > 100 µM | [37] > 100 µM | [38] > 100 µM | [2] > 100 µM | [3] > 100 µM | [4] > 100 µM | [5] > 100 µM | [39] > 100 µM | [7] > 100 µM | [8] > 100 µM | [40] > 100 µM | [10] > 100 µM | [11] > 100 µM | [12] > 100 µM | [13] > 100 µM | [41] > 100 µM | [14] > 100 µM | [15] > 100 µM | [16] > 100 µM | [17] > 100 µM | [18] > 100 µM | [19] > 100 µM | [42] > 100 µM | [20] > 100 µM | [43] > 100 µM | [21] > 100 µM | [44] > 100 µM | [22] > 100 µM | [45] > 100 µM | [23] > 100 µM | [24] > 100 µM | [25] > 100 µM | [46] > 100 µM | [26] > 100 µM | [47] > 100 µM | [48] > 100 µM | [49] > 100 µM | [50] > 100 µM | [27] > 100 µM | [28] > 100 µM | [51] > 100 µM | [52] > 100 µM | [53] > 100 µM | [29] > 100 µM | [30] > 100 µM | [54] > 100 µM | [31] > 100 µM | [32] > 100 µM | [33] > 100 µM | [55] > 100 µM | [34] > 100 µM | [56] > 100 µM | [35] > 100 µM
> 100 µM: [9]

N/C(=N\c1ccc(Cl)cc1)NS(=O)(=O)c1ccc(-c2ccccn2)s1
inactive: [36] 15.2 µM | [37] 12.5 µM | [38] 19.1 µM | [1] 16.4 µM | [2] 17.3 µM | [3] 2.07 µM | [5] 17.4 µM | [39] 17 µM | [6] 12.1 µM | [8] 16.9 µM | [40] 18.1 µM | [10] 13 µM | [11] 18.3 µM | [12] 24.8 µM | [13] 16.1 µM | [41] 15.4 µM | [14] 29.7 µM | [15] 17.5 µM | [16] 17.8 µM | [57] 17.1 µM | [17] 14.2 µM | [19] 6.89 µM | [42] 2.41 µM | [20] 12.4 µM | [43] 17.3 µM | [21] 15.9 µM | [44] 17.7 µM | [22] 9.27 µM | [45] 18.1 µM | [23] 22.8 µM | [24] 11.5 µM | [25] 21.4 µM | [46] 19 µM | [26] 14.2 µM | [47] 16.9 µM | [48] 16.8 µM | [49] 17.3 µM | [50] 17.5 µM | [58] 14.9 µM | [27] 19.4 µM | [28] 14.1 µM | [51] 15.8 µM | [52] 22.1 µM | [53] 15.5 µM | [29] 16.3 µM | [30] 21.8 µM | [54] 14.5 µM | [31] 19.4 µM | [32] 12.8 µM | [33] 17.3 µM | [55] 15 µM | [34] 7.91 µM | [56] 13.4 µM | [35] 17.7 µM
17.5 µM: [9]

Source: ChEMBL document CHEMBL1201862, “PubChem BioAssay data set” (2004)
